One experiment has as its target T1, Son of Sevenless (SOS) (Homo sapiens, UniProt Q07889).
T1 sequence (Q07889 564-1049 limits assumed): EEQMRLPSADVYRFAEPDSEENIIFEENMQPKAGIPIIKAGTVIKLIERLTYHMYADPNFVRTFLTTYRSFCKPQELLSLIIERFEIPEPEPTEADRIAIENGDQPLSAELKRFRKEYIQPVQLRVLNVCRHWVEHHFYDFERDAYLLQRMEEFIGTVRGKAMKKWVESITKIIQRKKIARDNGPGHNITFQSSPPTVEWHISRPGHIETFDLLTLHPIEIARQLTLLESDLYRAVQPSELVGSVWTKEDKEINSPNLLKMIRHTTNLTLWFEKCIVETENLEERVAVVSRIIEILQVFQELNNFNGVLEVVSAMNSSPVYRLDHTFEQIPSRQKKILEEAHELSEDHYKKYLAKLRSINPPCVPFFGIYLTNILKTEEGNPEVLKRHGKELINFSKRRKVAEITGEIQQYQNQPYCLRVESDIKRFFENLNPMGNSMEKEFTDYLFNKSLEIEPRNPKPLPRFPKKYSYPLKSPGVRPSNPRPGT
Briefly: Binding to SOS, fluorescence polarization anisotropy (FPA) probe displacement. As to conditions: displacement of FITC-conjugated probe (Example 285), affinity calculated from IC50. As for the experimental part:
Compounds of the present invention were tested for their ability to bind to the Ras guanine exchange factor (GEF) Son of Sevenless (SOS). Binding to SOS was measured using a Fluorescence polarization anisotropy (FPA) assay that assesses the ability of a test compound to displace a fluorescent FITC-conjugated compound (Example 285). Briefly, the labeled probe compound is incubated with SOS in buffer. Changes in anisotropy indicative of displacement of the labeled probe for a test compound are assessed over a dose range of test compound. Data was analyzed by plotting fluorescence anisotropy values as a function of compound concentration. IC50 values were determined using a four-parameter dose-response (variable slope) and binding affinities were calculated from this IC50 value. This assay is performed in a method analogous to the assay disclosed in: Burns, M. C.; Sun, Q.; Daniels, R. N.; Camper, D. V.; Kennedy, J. P.; Phan, J.; Olejniczak, E. O.; Lee, T.; Waterson, A. G.; Rossanese, O. W.; Fesik, S. W. “Approach for targeting Ras with small molecules that activate SOS-mediated nucleotide exchange” Proc. Natl. Acad. Sci. 2014; 11(9): 3401-3406. PMCID: PMC3948241.

In experiment [1] the target is Ras GEF SOS (Son of Sevenless) (Homo sapiens, UniProt Q07889). Briefly: SOS-mediated nucleotide exchange on Ras (BODIPY-GDP fluorescence). It is filed as biochemical. As to conditions: SOS-mediated exchange of BODIPY-GDP for GTP on Ras. As for the experimental part: Compounds of the present invention were tested for their ability to modify the rate at which Ras exchanges a labeled nucleotide guanosine diphosphate (GDP) analog for guanosine triphosphate (GTP). Briefly, test compounds, then GTP and the Ras GEF SOS (Son of Sevenless) are added to a buffered solution containing Ras protein loaded with BODIPY-GDP. Changes in fluoresence indicating exchange of the labeled GDP for GTP are monitored over time. Raw fluorescence data was fit to a single exponential decay function and derived rates were plotted as mean values. EC50 values were calculated by plotting mean derived rates as a function of compound concentration and fit using a four-parameter dose-response curve. This assay is performed in a method analogous to the assay disclosed in: Burns, M. C.; Sun, Q.; Daniels, R. N.; Camper, D. V.; Kennedy, J. P.; Phan, J.; Olejniczak, E. O.; Lee, T.; Waterson, A. G.; Rossanese, O. W.; Fesik, S. W. “Approach for targeting Ras with small molecules that activate SOS-mediated nucleotide exchange” Proc. Natl. Acad. Sci. 2014; 11(9): 3401-3406. PMCID: PMC3948241.
Ras GEF SOS (Son of Sevenless), sequence (P01112 1-166 partner limits assumed, one chain of several): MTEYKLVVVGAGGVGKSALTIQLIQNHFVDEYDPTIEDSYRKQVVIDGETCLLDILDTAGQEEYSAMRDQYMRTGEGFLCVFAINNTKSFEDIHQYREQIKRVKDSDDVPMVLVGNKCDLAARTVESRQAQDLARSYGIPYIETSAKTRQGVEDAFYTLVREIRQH

The values that follow come from US10501421B1, “Substituted benzimidazoles as modulators of Ras signaling” (VANDERBILT UNIVERSITY, priority 2017, dated 2019).

Structures can show the parent of a compound that is named as a salt. A value given as a limit tells only on which side of the number the result lay.

For orientation: Ki means the dissociation constant of the complex between target and ligand, obtained from inhibition or displacement. As a reminder, the EC50 is the concentration that produces a half-maximal response. Higher therefore signals weaker potency. Take `Cc1cc(Cn2c(NCCN)nc3c(N4CCNCC4)cc(Cl)cc32)cc(C)c1F` [Example 299, N^1-(6-chloro-1-(4-fluoro-3,5-dimethylbenzyl)-4-(piperazin-1-yl)-1H-benzo[d]imidazol-2-yl)ethane-1,2-diamine]: the Ki on Son of Sevenless (SOS) was < 500 nM. Also, in experiment [1], the EC50 was < 1000 nM.
Consider `Cc1cc2c(nc(N3CC(CN)C3)n2Cc2ccc(F)c(C)c2)c(-c2ccccc2F)n1` [Example 216, (1-(1-(4-fluoro-3-methylbenzyl)-4-(2-fluorophenyl)-6-methyl-1H-imidazo[4,5-c]pyridin-2-yl)azetidin-3-yl)methanamine], for which the Ki at Son of Sevenless (SOS) is 500 to 1000 nM. Moreover, the EC50 in experiment [1] is < 1000 nM.
For `Cc1cc2nc(N3CCNCC3)n(CC3CCCCC3)c2cc1C` [Example 37, 1-(cyclohexylmethyl)-5,6-dimethyl-2-(piperazin-1-yl)-1H-benzo[d]imidazole trifluoroacetate] the same measures were > 5000 nM and 5000 to 30000 nM.
For the compound `Cc1cc(OCC2CCNCC2)c2nc(NCCN)n(Cc3cc(C)c(F)c(C)c3)c2c1` [Example 330, N^1-(1-(4-fluoro-3,5-dimethylbenzyl)-6-methyl-4-(piperidin-4-ylmethoxy)-1H-benzo[d]imidazol-2-yl)ethane-1,2-diamine], the Ki on Son of Sevenless (SOS) was 500 to 1000 nM. Moreover, the concentration for a half-maximal effect (EC50) in experiment [1] is < 1000 nM.
The corresponding values for `Cc1cc2nc(N3CCNCC3)n(Cc3cccc(Br)c3)c2cc1C` [Example 34, 1-(3-bromobenzyl)-5,6-dimethyl-2-(piperazin-1-yl)-1H-benzo[d]imidazole trifluoroacetate] are > 5000 nM and 5000 to 30000 nM.
As to `Cc1cc(NCCN2CCOCC2)c2nc(N3CCNCC3)n(Cc3cc(C)c(F)c(C)c3)c2c1` [Example 193, 1-(4-fluoro-3,5-dimethylbenzyl)-6-methyl-N-(2-morpholinoethyl)-2-(piperazin-1-yl)-1H-benzo[d]imidazol-4-amine trifluoroacetate], on Son of Sevenless (SOS), the Ki was 500 to 1000 nM. Moreover, in experiment [1], the EC50 lay in the range of 1000 to 5000 nM.
The corresponding values for `Cc1cc(Cn2c(N3CCNCC3)nc3c(-c4ccccc4Cl)cc(Cl)cc32)cc(C)c1F` [Example 307, 6-chloro-4-(2-chlorophenyl)-1-(4-fluoro-3,5-dimethylbenzyl)-2-(piperazin-1-yl)-1H-benzo[d]imidazole] are < 500 nM and 1000 to 5000 nM.
As for `CCNCc1c(C)c(C)cc2c1nc(NCCN)n2Cc1ccc(F)c(Cl)c1` [Example 147, N^1-(1-(3-chloro-4-fluorobenzyl)-4-((ethylamino)methyl)-5,6-dimethyl-1H-benzo[d]imidazol-2-yl)ethane-1,2-diamine trifluoroacetate], the Ki at Son of Sevenless (SOS) was 1000 to 5000 nM. For the same compound, the EC50 in experiment [1] is < 1000 nM.
As to `Cc1cc2nc(N3CCCC(N)C3)n(Cc3ccc(F)c(Cl)c3)c2cc1C` (stereo not shown) [Example 290, 1-(1-(3-chloro-4-fluorobenzyl)-5,6-dimethyl-1H-benzo[d]imidazol-2-yl)piperidin-3-amine], on Son of Sevenless (SOS), the Ki was 1000 to 5000 nM. Moreover, the EC50 in experiment [1] fell in the range of 1000 to 5000 nM.
With `Cc1cc2c(nc(N3CCNCC3)n2Cc2ccc(F)c(C)c2)c(CNC(C)C)n1` [Example 233, N-((1-(4-fluoro-3-methylbenzyl)-6-methyl-2-(piperazin-1-yl)-1H-imidazo[4,5-c]pyridin-4-yl)methyl)propan-2-amine], the Ki at Son of Sevenless (SOS) is > 5000 nM. This compound came in with an EC50 in experiment [1] of 5000 to 30000 nM.
Regarding `Cc1cc(OCCNCCO)c2nc(N3CCNCC3)n(Cc3cc(C)c(F)c(C)c3)c2c1` [Example 199, 2-((2-((1-(4-fluoro-3,5-dimethylbenzyl)-6-methyl-2-(piperazin-1-yl)-1H-benzo[d]imidazol-4-yl)oxy)ethyl)amino)ethan-1-ol], the Ki at Son of Sevenless (SOS) is 500 to 1000 nM.
As for `Cc1cc2nc(NCCCN)n(Cc3cc(C)c(F)c(C)c3)c2cc1C` [Example 43, N^1-(1-(4-fluoro-3,5-dimethylbenzyl)-5,6-dimethyl-1H-benzo[d]imidazol-2-yl)propane-1,3-diamine trifluoroacetate], the Ki on Son of Sevenless (SOS) is > 5000 nM. For the same compound, the EC50 in experiment [1] lay within 5000 to 30000 nM.
With `Cc1cnc2nc(NCCN)n(Cc3ccc(F)c(C)c3)c2c1` [Example 245, N^1-(1-(4-fluoro-3-methylbenzyl)-6-methyl-1H-imidazo[4,5-b]pyridin-2-yl)ethane-1,2-diamine], on Son of Sevenless (SOS), the Ki was > 5000 nM. The EC50 in experiment [1] was in the range of 1000 to 5000 nM.
Consider `Cc1cc2nc(NCC3CNC3)n(Cc3ccc(F)c(Cl)c3)c2cc1C` [Example 291, N-(azetidin-3-ylmethyl)-1-(3-chloro-4-fluorobenzyl)-5,6-dimethyl-1H-benzo[d]imidazol-2-amine], for which the Ki on Son of Sevenless (SOS) was 1000 to 5000 nM. The EC50 in experiment [1] is < 1000 nM.
Regarding `CNCCN(C)c1nc2cc(C)c(C)cc2n1Cc1cc(C)c(F)c(C)c1` [Example 45, N^1-(1-(4-fluoro-3,5-dimethylbenzyl)-5,6-dimethyl-1H-benzo[d]imidazol-2-yl)-N^1,N^2-dimethylethane-1,2-diamine trifluoroacetate], at Son of Sevenless (SOS), the Ki was > 5000 nM. The compound also returned an EC50 in experiment [1] of 5000 to 30000 nM.
As for `Cc1cc2nc(S(=O)(=O)CCN)n(Cc3ccc(F)c(Cl)c3)c2cc1C` [Example 211, 2-((1-(3-chloro-4-fluorobenzyl)-5,6-dimethyl-1H-benzo[d]imidazol-2-yl)sulfonyl)ethan-1-amine trifluoroacetate], the Ki at Son of Sevenless (SOS) is > 5000 nM.
For the compound `Cc1cc(OCC2CCNCC2)c2nc(N3CCNCC3)n(Cc3cc(C)c(F)c(C)c3)c2c1` [Example 202, 1-(4-fluoro-3,5-dimethylbenzyl)-6-methyl-2-(piperazin-1-yl)-4-(piperidin-4-ylmethoxy)-1H-benzo[d]imidazole], on Son of Sevenless (SOS), the Ki was 500 to 1000 nM.
`COC(=O)c1cnn(CC(C)C)c1-c1cc(C)cc2c1nc(N1CCNCC1)n2Cc1ccc(F)c(Cl)c1` [Example 179, methyl 5-(1-(3-chloro-4-fluorobenzyl)-6-methyl-2-(piperazin-1-yl)-1H-benzo[d]imidazol-4-yl)-1-isobutyl-1H-pyrazole-4-carboxylate]: on Son of Sevenless (SOS), the Ki was 500 to 1000 nM.
`Cc1cc(N2CCN(C(C)C)CC2)c2nc(N3CCNCC3)n(Cc3cc(C)c(F)c(C)c3)c2c1` [Example 194, 1-(4-fluoro-3,5-dimethylbenzyl)-4-(4-isopropylpiperazin-1-yl)-6-methyl-2-(piperazin-1-yl)-1H-benzo[d]imidazole trifluoroacetate]: on Son of Sevenless (SOS), the Ki was 500 to 1000 nM.
In the case of `CCCNC(=O)c1cnn(CC(C)C)c1-c1cc(C)cc2c1nc(N1CCNCC1)n2Cc1cc(C)c(F)c(C)c1` [Example 181, 5-(1-(4-fluoro-3,5-dimethylbenzyl)-6-methyl-2-(piperazin-1-yl)-1H-benzo[d]imidazol-4-yl)-1-isobutyl-N-propyl-1H-pyrazole-4-carboxamide trifluoroacetate], on Son of Sevenless (SOS), the Ki was 500 to 1000 nM.
`N[C@@H](Cc1ccccc1)c1cc(Cl)cc2c1nc(N1CCNCC1)n2Cc1ccc(F)c(Cl)c1` [Example 166, (S)-1-(6-chloro-1-(3-chloro-4-fluorobenzyl)-2-(piperazin-1-yl)-1H-benzo[d]imidazol-4-yl)-2-phenylethan-1-amine trifluoroacetate]: on Son of Sevenless (SOS), the Ki was 500 to 1000 nM.
Same read-out and setting: with `Cc1cc(O[C@H]2CCNC2)c2nc(N3CCNCC3)n(Cc3cc(C)c(F)c(C)c3)c2c1` [Example 200, (S)-1-(4-fluoro-3,5-dimethylbenzyl)-6-methyl-2-(piperazin-1-yl)-4-(pyrrolidin-3-yloxy)-1H-benzo[d]imidazole] the figure was > 5000 nM; with `Cc1cc2nc(N3C[C@@H](C)N[C@@H](C)C3)n(Cc3cc(C)c(F)c(C)c3)c2cc1C` [Example 336, 2-((3S,5R)-3,5-dimethylpiperazin-1-yl)-1-(4-fluoro-3,5-dimethylbenzyl)-5,6-dimethyl-1H-benzo[d]imidazole], 1000 to 5000 nM.
